# In ChEMBL document CHEMBL4033723, “Succinamide derivatives of melampomagnolide B and their anti-cancer activities” (2017):
# Tests used:
# Format in all cases: functional
# CCRF-CEM = test: Growth inhibition of human CCRF-CEM cells after 48 hrs by sulforhodamine B assay
# HL-60(TB) = test: Growth inhibition of human HL-60(TB) cells after 48 hrs by sulforhodamine B assay; settings: HL-60, 48 h
# K562 = test: Growth inhibition of human K562 cells after 48 hrs by sulforhodamine B assay; settings: K562, 48 h
# MOLT-4 = test: Growth inhibition of human MOLT4 cells after 48 hrs by sulforhodamine B assay; settings: MOLT-4, 48 h
# RPMI-8226 = test: Growth inhibition of human RPMI8226 cells after 48 hrs by sulforhodamine B assay; settings: RPMI-8226, 48 h
# SR = test: Growth inhibition of human SR cells after 48 hrs by sulforhodamine B assay
# A549 = test: Growth inhibition of human A549/ATCC cells after 48 hrs by sulforhodamine B assay; settings: A549, 48 h
# HOP-92 = test: Growth inhibition of human HOP92 cells after 48 hrs by sulforhodamine B assay; settings: HOP-92, 48 h
# NCI-H226 = test: Growth inhibition of human NCI-H226 cells after 48 hrs by sulforhodamine B assay; settings: NCI-H226, 48 h
# NCI-H23 = test: Growth inhibition of human NCI-H23 cells after 48 hrs by sulforhodamine B assay; settings: NCI-H23, 48 h
# NCI-H322M = test: Growth inhibition of human NCI-H322M cells after 48 hrs by sulforhodamine B assay
# NCI-H460 = test: Growth inhibition of human NCI-H460 cells after 48 hrs by sulforhodamine B assay; settings: NCI-H460, 48 h
# NCI-H522 = test: Growth inhibition of human NCI-H522 cells after 48 hrs by sulforhodamine B assay; settings: NCI-H522, 48 h
# COLO 205 = test: Growth inhibition of human COLO205 cells after 48 hrs by sulforhodamine B assay; settings: COLO 205, 48 h
# HCC 2998 = test: Growth inhibition of human HCC2998 cells after 48 hrs by sulforhodamine B assay; settings: HCC 2998, 48 h
# HCT-116 = test: Growth inhibition of human HCT116 cells after 48 hrs by sulforhodamine B assay; settings: HCT-116, 48 h
# HCT-15 = test: Growth inhibition of human HCT15 cells after 48 hrs by sulforhodamine B assay; settings: HCT-15, 48 h
# HT-29 = test: Growth inhibition of human HT-29 cells after 48 hrs by sulforhodamine B assay; settings: HT-29, 48 h
# KM12 = test: Growth inhibition of human KM12 cells after 48 hrs by sulforhodamine B assay; settings: KM12, 48 h
# SW-620 = test: Growth inhibition of human SW620 cells after 48 hrs by sulforhodamine B assay; settings: SW-620, 48 h
# SF-268 = test: Growth inhibition of human SF268 cells after 48 hrs by sulforhodamine B assay; settings: SF-268, 48 h
# SF-295 = test: Growth inhibition of human SF295 cells after 48 hrs by sulforhodamine B assay; settings: SF-295, 48 h
# SF-539 = test: Growth inhibition of human SF539 cells after 48 hrs by sulforhodamine B assay; settings: SF-539, 48 h
# SNB-19 = test: Growth inhibition of human SNB19 cells after 48 hrs by sulforhodamine B assay; settings: SNB-19, 48 h
# SNB-75 = test: Growth inhibition of human SNB75 cells after 48 hrs by sulforhodamine B assay; settings: SNB-75, 48 h
# U-251 = test: Growth inhibition of human U251 cells after 48 hrs by sulforhodamine B assay; settings: U-251, 48 h
# LOX IMVI = test: Growth inhibition of human LOXIMVI cells after 48 hrs by sulforhodamine B assay
# Malme-3M = test: Growth inhibition of human MALME-3M cells after 48 hrs by sulforhodamine B assay
# M14 = test: Growth inhibition of human M14 cells after 48 hrs by sulforhodamine B assay; settings: M14, 48 h
# MDA-MB-435 = test: Growth inhibition of human MDA-MB-435 cells after 48 hrs by sulforhodamine B assay; settings: MDA-MB-435, 48 h
# SK-MEL-2 = test: Growth inhibition of human SK-MEL-2 cells after 48 hrs by sulforhodamine B assay; settings: SK-MEL-2, 48 h
# SK-MEL-28 = test: Growth inhibition of human SK-MEL-28 cells after 48 hrs by sulforhodamine B assay; settings: SK-MEL-28, 48 h
# SK-MEL-5 = test: Growth inhibition of human SK-MEL-5 cells after 48 hrs by sulforhodamine B assay; settings: SK-MEL-5, 48 h
# UACC-257 = test: Growth inhibition of human UACC257 cells after 48 hrs by sulforhodamine B assay; settings: UACC-257, 48 h
# UACC-62 = test: Growth inhibition of human UACC62 cells after 48 hrs by sulforhodamine B assay; settings: UACC-62, 48 h
# OVCAR-3 = test: Growth inhibition of human OVCAR3 cells after 48 hrs by sulforhodamine B assay; settings: OVCAR-3, 48 h
# OVCAR-4 = test: Growth inhibition of human OVCAR4 cells after 48 hrs by sulforhodamine B assay; settings: OVCAR-4, 48 h
# OVCAR-5 = test: Growth inhibition of human OVCAR5 cells after 48 hrs by sulforhodamine B assay; settings: OVCAR-5, 48 h
# OVCAR-8 = test: Growth inhibition of human OVCAR8 cells after 48 hrs by sulforhodamine B assay; settings: OVCAR-8, 48 h
# NCI/ADR-RES = test: Growth inhibition of human NCI-ADR-RES cells after 48 hrs by sulforhodamine B assay
# SK-OV-3 = test: Growth inhibition of human SKOV3 cells after 48 hrs by sulforhodamine B assay; settings: SK-OV-3, 48 h
# 786-0 = test: Growth inhibition of human 786-0 cells after 48 hrs by sulforhodamine B assay; settings: 786-0, 48 h
# A498 = test: Growth inhibition of human A498 cells after 48 hrs by sulforhodamine B assay; settings: A498, 48 h
# ACHN = test: Growth inhibition of human ACHN cells after 48 hrs by sulforhodamine B assay
# CAKI-1 = test: Growth inhibition of human Caki1 cells after 48 hrs by sulforhodamine B assay; settings: CAKI-1, 48 h
# RXF 393 = test: Growth inhibition of human RXF393 cells after 48 hrs by sulforhodamine B assay; settings: RXF 393, 48 h
# SN12C = test: Growth inhibition of human SN12C cells after 48 hrs by sulforhodamine B assay
# TK-10 = test: Growth inhibition of human TK10 cells after 48 hrs by sulforhodamine B assay; settings: TK-10, 48 h
# UO-31 = test: Growth inhibition of human UO31 cells after 48 hrs by sulforhodamine B assay; settings: UO-31, 48 h
# PC-3 = test: Growth inhibition of human PC3 cells after 48 hrs by sulforhodamine B assay; settings: PC-3, 48 h
# DU-145 = test: Growth inhibition of human DU145 cells after 48 hrs by sulforhodamine B assay; settings: DU-145, 48 h
# MCF7 = test: Growth inhibition of human MCF7 cells after 48 hrs by sulforhodamine B assay; settings: MCF7, 48 h
# MDA-MB-231 = test: Growth inhibition of human MDA-MB-231 cells after 48 hrs by sulforhodamine B assay; settings: MDA-MB-231, 48 h
# Hs-578T = test: Growth inhibition of human Hs 578T cells after 48 hrs by sulforhodamine B assay
# BT-549 = test: Growth inhibition of human BT549 cells after 48 hrs by sulforhodamine B assay; settings: BT-549, 48 h
# T47D = test: Growth inhibition of human T47D cells after 48 hrs by sulforhodamine B assay
# MDA-MB-468 = test: Growth inhibition of human MDA-MB-468 cells after 48 hrs by sulforhodamine B assay; settings: MDA-MB-468, 48 h
# [1] = Growth inhibition of human M9-ENL1 cells after 24 hrs by trypan blue assay; settings: M9-ENL1, 24 h
# [2] = Induction of apoptosis in human M9-ENL1 cells assessed as cell death after 24 hrs by Annexin V/PI or 7-AAD staining based flow cytometry; settings: M9-ENL1, 24 h, read-out: LC50 (the source's name)
smiles,measurement,setting,value
C=C1C(=O)O[C@H]2[C@H]1CC/C(COC(=O)CCC(=O)NCCCCCCCCNC(=O)CCC(=O)OC/C1=C/CC[C@@]3(C)O[C@H]3[C@H]3OC(=O)C(=C)[C@@H]3CC1)=C\CC[C@@]1(C)O[C@@H]21,GI50,CCRF-CEM,0.32 µM
same,GI50,HL-60(TB),0.63 µM
same,GI50,K562,0.97 µM
same,GI50,MOLT-4,2.11 µM
same,GI50,RPMI-8226,1.67 µM
same,GI50,SR,0.41 µM
same,GI50,A549,18.5 µM
same,GI50,HOP-92,1.58 µM
same,GI50,NCI-H226,2.06 µM
same,GI50,NCI-H23,2.99 µM
same,GI50,NCI-H322M,16.3 µM
same,GI50,NCI-H460,5 µM
same,GI50,NCI-H522,0.48 µM
same,GI50,COLO 205,1.35 µM
same,GI50,HCC 2998,4.12 µM
same,GI50,HCT-116,1.54 µM
same,GI50,HCT-15,3.6 µM
same,GI50,HT-29,1.64 µM
same,GI50,KM12,9.46 µM
same,GI50,SW-620,1.22 µM
same,GI50,SF-268,3.34 µM
same,GI50,SF-295,15.1 µM
same,GI50,SF-539,2.43 µM
same,GI50,SNB-19,4.15 µM
same,GI50,SNB-75,2.02 µM
same,GI50,U-251,3.03 µM
same,GI50,LOX IMVI,1.37 µM
same,GI50,Malme-3M,2.04 µM
same,GI50,M14,1.79 µM
same,GI50,MDA-MB-435,1.8 µM
same,GI50,SK-MEL-2,2.25 µM
same,GI50,SK-MEL-28,1.65 µM
same,GI50,SK-MEL-5,3.13 µM
same,GI50,UACC-257,1.76 µM
same,GI50,UACC-62,1.97 µM
same,GI50,OVCAR-3,1.5 µM
same,GI50,OVCAR-4,1.64 µM
same,GI50,OVCAR-5,1.82 µM
same,GI50,OVCAR-8,2.9 µM
same,GI50,NCI/ADR-RES,33.5 µM
same,GI50,SK-OV-3,6.45 µM
same,GI50,786-0,1.62 µM
same,GI50,A498,6.72 µM
same,GI50,ACHN,3.13 µM
same,GI50,CAKI-1,12.7 µM
same,GI50,RXF 393,0.85 µM
same,GI50,SN12C,3.74 µM
same,GI50,TK-10,20.8 µM
same,GI50,UO-31,10.9 µM
same,GI50,PC-3,3.64 µM
same,GI50,DU-145,1.92 µM
same,GI50,MCF7,0.77 µM
same,GI50,MDA-MB-231,1.97 µM
same,GI50,Hs-578T,3.88 µM
same,GI50,BT-549,1.23 µM
same,GI50,T47D,1.51 µM
same,GI50,MDA-MB-468,1.33 µM
same,GI50,[1],1 µM
same,CC50,[2],11 µM
C=C1C(=O)O[C@H]2[C@H]1CC/C(COC(=O)CCC(=O)NCCCCCCCCCNC(=O)CCC(=O)OC/C1=C/CC[C@@]3(C)O[C@H]3[C@H]3OC(=O)C(=C)[C@@H]3CC1)=C\CC[C@@]1(C)O[C@@H]21,GI50,CCRF-CEM,0.28 µM
same,GI50,HL-60(TB),0.44 µM
same,GI50,K562,0.45 µM
same,GI50,MOLT-4,0.64 µM
same,GI50,RPMI-8226,0.5 µM
same,GI50,SR,0.33 µM
same,GI50,A549,13.8 µM
same,GI50,HOP-92,1.4 µM
same,GI50,NCI-H226,1.9 µM
same,GI50,NCI-H23,2.23 µM
same,GI50,NCI-H322M,16.3 µM
same,GI50,NCI-H460,2.18 µM
same,GI50,NCI-H522,0.42 µM
same,GI50,COLO 205,1.22 µM
same,GI50,HCC 2998,2.25 µM
same,GI50,HCT-116,0.86 µM
same,GI50,HCT-15,2.63 µM
same,GI50,HT-29,1.33 µM
same,GI50,KM12,4.6 µM
same,GI50,SW-620,0.54 µM
same,GI50,SF-268,2.92 µM
same,GI50,SF-295,7.68 µM
same,GI50,SF-539,1.85 µM
same,GI50,SNB-19,3.38 µM
same,GI50,SNB-75,1.47 µM
same,GI50,U-251,3.01 µM
same,GI50,LOX IMVI,0.37 µM
same,GI50,Malme-3M,1.94 µM
same,GI50,M14,1.65 µM
same,GI50,MDA-MB-435,1.63 µM
same,GI50,SK-MEL-2,2.12 µM
same,GI50,SK-MEL-28,1.47 µM
same,GI50,SK-MEL-5,1.88 µM
same,GI50,UACC-257,2.06 µM
same,GI50,UACC-62,1.69 µM
same,GI50,OVCAR-3,1.29 µM
same,GI50,OVCAR-4,1.48 µM
same,GI50,OVCAR-5,1.7 µM
same,GI50,OVCAR-8,3.24 µM
same,GI50,NCI/ADR-RES,26.7 µM
same,GI50,SK-OV-3,5.8 µM
same,GI50,786-0,1.49 µM
same,GI50,A498,2.72 µM
same,GI50,ACHN,2.1 µM
same,GI50,CAKI-1,10.5 µM
same,GI50,RXF 393,1.01 µM
same,GI50,SN12C,2.69 µM
same,GI50,TK-10,1.78 µM
same,GI50,UO-31,3.9 µM
same,GI50,PC-3,2.53 µM
same,GI50,DU-145,1.75 µM
same,GI50,MCF7,0.42 µM
same,GI50,MDA-MB-231,1.58 µM
same,GI50,Hs-578T,2.99 µM
same,GI50,BT-549,0.66 µM
same,GI50,T47D,1.49 µM
same,GI50,MDA-MB-468,0.98 µM
same,GI50,[1],0.44 µM
same,CC50,[2],6.5 µM
